Data on 13 compounds can be found in patent US10336702B2, “Pharmaceutically active compounds” (BERGENBIO ASA, priority 2015, dated 2019).

For one experiment, the target named is T1, p-Akt3 in WM115 cells (Homo sapiens, UniProt Q9Y243).
T1 construct: SureFire assays to detect cellular p-Akt1, p-Akt2 and p-Akt3 levels in WM115 cells (Akt2/3) and LNCaP cells (Akt1); endogenous in cells; host or cells: WM115 (ECACC 91061232), insulin-stimulated
Kind of experiment: Phospho-Akt cellular SureFire assay, p-Akt3 in WM115 cells. In kind it is cell-based. As to conditions: insulin stimulated, read-out: Biological Assay 2 IC50 (nM) Akt3 WM115. Put shortly: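 WM115 cells were serum-reduced to 0.1% FBS, stimulated with 100 nM insulin for 10 min, then exposed to compound (0.3% DMSO) for 15 min at 37 °C. Lysates were assayed for Thr308-phosphorylated Akt3 by AlphaScreen SureFire using an isoform-specific total Akt3 capture antibody. IC50 was derived from a 4-parameter fit.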

The next experiment deals with T2, p-Akt1 in LNCaP cells (Homo sapiens, UniProt P31749).
T2 construct: SureFire assays to detect cellular p-Akt1, p-Akt2 and p-Akt3 levels in WM115 cells (Akt2/3) and LNCaP cells (Akt1); endogenous in cells; host or cells: LNCaP (ECACC 89110211)
T2 sequence (P31749 whole entry): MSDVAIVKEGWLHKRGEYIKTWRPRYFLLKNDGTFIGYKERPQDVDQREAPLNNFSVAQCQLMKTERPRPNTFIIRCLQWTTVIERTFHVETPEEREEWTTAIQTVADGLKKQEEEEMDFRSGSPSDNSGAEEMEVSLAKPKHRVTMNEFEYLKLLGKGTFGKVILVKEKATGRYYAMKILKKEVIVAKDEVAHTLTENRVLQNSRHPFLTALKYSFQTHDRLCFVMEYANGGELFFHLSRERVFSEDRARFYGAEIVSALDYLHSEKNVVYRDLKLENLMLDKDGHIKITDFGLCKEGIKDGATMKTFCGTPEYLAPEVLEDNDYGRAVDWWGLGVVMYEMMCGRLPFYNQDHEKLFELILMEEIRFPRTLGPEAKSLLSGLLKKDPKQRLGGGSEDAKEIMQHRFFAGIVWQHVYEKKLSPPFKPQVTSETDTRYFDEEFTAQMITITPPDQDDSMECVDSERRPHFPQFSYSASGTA
Kind of experiment: Phospho-Akt cellular SureFire assay, p-Akt1 in LNCaP cells. It is filed as cell-based. Particulars: read-out: Biological Assay 2 IC50 (nM) Akt1 LNCaP. The essentials: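 LNCaP cells, 5×10^4/well, seeded overnight, switched to 0.1% FBS medium without insulin stimulation, then compound for 15 min at 37 °C (0.3% DMSO). Lysate p-Akt1 (pThr308) by AlphaScreen SureFire, two 2 h incubations at room temperature; IC50 by 4-parameter fit.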

Another experiment addresses T3, p-Akt2 in WM115 cells (Homo sapiens, UniProt P31751).
T3 construct: SureFire assays to detect cellular p-Akt1, p-Akt2 and p-Akt3 levels in WM115 cells (Akt2/3) and LNCaP cells (Akt1); endogenous in cells; host or cells: WM115 (ECACC 91061232), insulin-stimulated
Kind of experiment: Phospho-Akt cellular SureFire assay, p-Akt2 in WM115 cells. It is filed as cell-based. As to conditions: insulin stimulated, read-out: Biological Assay 2 IC50 (nM) Akt2 WM115. Put shortly: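 WM115 cells in 0.1% FBS medium stimulated 10 min with 100 nM insulin, then exposed to compound for 15 min at 37° C (0.3% DMSO final). Lysates assayed by AlphaScreen with anti-(pThr308)Akt and isoform-specific total Akt2 antibodies; IC50 from 4-parameter fit.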

Another experiment concerns the target T4, Akt2 (Homo sapiens, UniProt P31751).
T4 construct: unspecified tag, removed (detagged) (cleaved yes); purchased SignalChem and Proteros (Akt2); Merck Millipore (PDK1) 14-452 (PDK1); none given for Akt2
Kind of experiment: Akt activation assay (PDK1-mediated activation, LANCE Ultra crosstide TR-FRET), Akt2. It is filed as biochemical. As to conditions: read-out: Biological Assay 1 IC50 (nM) Akt2. The essentials: (§1)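 Human Akt1, Akt2 or Akt3 (SignalChem: 5, 15, 3 nM; Proteros: 5 nM each) was preincubated with compound, then activated by 5 nM PDK1 on PtdIns(3,4,5)P3/DOPS/DOPC vesicles with 100 µM ATP and 100 nM ULight-crosstide (HEPES pH 7.5, 1% DMSO) for 30 min. Product was detected by Eu-anti-phospho-crosstide TR-FRET (665/615 nm), with IC50 from a 4-parameter fit.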
In general terms: Time-resolved FRET reads energy transfer from a long-lived donor to a nearby acceptor.

The target in the next experiment is T5, Akt3 (Homo sapiens, UniProt Q9Y243).
T5 construct: unspecified tag, removed (detagged) (cleaved yes); purchased SignalChem and Proteros (Akt3); Merck Millipore (PDK1) 14-452 (PDK1); none given for Akt3
T5 sequence (Q9Y243 whole entry): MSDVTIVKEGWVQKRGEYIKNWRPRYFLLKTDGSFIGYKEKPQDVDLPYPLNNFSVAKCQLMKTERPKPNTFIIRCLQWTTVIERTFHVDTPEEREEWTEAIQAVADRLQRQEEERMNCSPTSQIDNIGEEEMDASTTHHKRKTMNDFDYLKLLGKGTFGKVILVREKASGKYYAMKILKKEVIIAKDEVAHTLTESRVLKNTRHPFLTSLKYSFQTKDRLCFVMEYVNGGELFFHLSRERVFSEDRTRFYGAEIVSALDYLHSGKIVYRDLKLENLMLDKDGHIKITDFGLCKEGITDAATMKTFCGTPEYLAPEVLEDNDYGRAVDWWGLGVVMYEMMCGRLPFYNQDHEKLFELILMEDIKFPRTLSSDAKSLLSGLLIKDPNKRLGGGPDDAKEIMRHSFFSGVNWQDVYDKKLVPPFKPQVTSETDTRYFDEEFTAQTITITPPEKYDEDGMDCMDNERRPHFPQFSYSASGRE
Kind of experiment: Akt activation assay (PDK1-mediated activation, LANCE Ultra crosstide TR-FRET), Akt3. In kind it is biochemical. Particulars: read-out: Biological Assay 1 IC50 (nM) Akt3. Put shortly:
as §1

The next experiment deals with T6, Akt1 (Homo sapiens, UniProt P31749).
T6 construct: unspecified tag, removed (detagged) (cleaved yes); purchased SignalChem and Proteros (Akt1); Merck Millipore (PDK1) 14-452 (PDK1); none given for Akt1
T6 sequence (P31749 whole entry): as the sequence (P31749 whole entry) above
Kind of experiment: Akt activation assay (PDK1-mediated activation, LANCE Ultra crosstide TR-FRET), Akt1. It is filed as biochemical. Particulars: read-out: Biological Assay 1 IC50 (nM) Akt1. The essentials: as §1

T4 sequence (P31751 whole entry): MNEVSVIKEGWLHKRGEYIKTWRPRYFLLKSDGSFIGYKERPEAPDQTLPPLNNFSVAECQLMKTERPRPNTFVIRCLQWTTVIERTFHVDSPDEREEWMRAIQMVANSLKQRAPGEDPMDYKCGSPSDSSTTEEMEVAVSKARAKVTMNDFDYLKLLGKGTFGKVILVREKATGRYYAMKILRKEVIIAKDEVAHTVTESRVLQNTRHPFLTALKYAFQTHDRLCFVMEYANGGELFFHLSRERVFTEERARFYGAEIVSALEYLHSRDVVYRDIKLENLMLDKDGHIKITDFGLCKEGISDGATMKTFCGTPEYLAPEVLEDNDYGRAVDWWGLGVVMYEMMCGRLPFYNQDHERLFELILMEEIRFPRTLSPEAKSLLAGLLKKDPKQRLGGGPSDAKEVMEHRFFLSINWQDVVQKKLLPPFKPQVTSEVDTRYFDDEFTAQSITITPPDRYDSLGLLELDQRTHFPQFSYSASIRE
T3 sequence (P31751 whole entry): as above
T1 sequence (Q9Y243 whole entry): as the sequence (Q9Y243 whole entry) above

As a reminder, the IC50 is the concentration that inhibits the measured activity by half. Take `COC(=O)N(C)[C@H]1CC[C@H](C(F)C(=O)Nc2cnc(-c3ccc(C4(N)CCC4)cc3)c(-c3ccccc3)c2)CC1` (relative stereo) [Example 52, Methyl (trans-4-(2-((6-(4-(1-aminocyclobutyl)phenyl)-5-phenylpyridin-3-yl)amino)-1-fluoro-2-oxoethyl)cyclohexyl)(methyl)carbamate]: the IC50 is 180 nM on p-Akt3 in WM115 cells; greater than 10000 nM at p-Akt1 in LNCaP cells; 5000 nM on p-Akt2 in WM115 cells; 520 nM on Akt2; 92 nM at Akt3; 6100 nM at Akt1.

On to `CC(C)(N)c1ccc(-c2cnc(NC(=O)C[C@H]3CC[C@H](N4CCOC4=O)CC3)cc2-c2ccccc2)cc1` [Example 64, N-(5-(4-(2-aminopropan-2-yl)phenyl)-4-phenylpyridin-2-yl)-2-(trans-4-(2-oxooxazolidin-3-yl)cyclohexyl)acetamide], for which the IC50 at p-Akt3 in WM115 cells is 210 nM; on p-Akt1 in LNCaP cells it was greater than 30000 nM; on p-Akt2 in WM115 cells, 6600 nM; at Akt2 it was 2800 nM; on Akt3, 180 nM; at Akt1, greater than 30000 nM.

In the case of `CCC(=O)N(C(C)C)[C@H]1CC[C@H](CC(=O)Nc2cc(-c3ccccc3)c(-c3ccc([C@]4(N)C[C@](C)(O)C4)cc3)cn2)CC1` [Example A107, N-(trans-4-(2-((5-(4-(trans-1-amino-3-hydroxy-3-methylcyclobutyl)phenyl)-4-phenylpyridin-2-yl)amino)-2-oxoethyl)cyclohexyl)-N-isopropylpropionamide], the IC50 was found to be 76 nM on p-Akt3 in WM115 cells; 7100 nM at p-Akt1 in LNCaP cells; 2200 nM at p-Akt2 in WM115 cells; 230 nM on Akt2; 23 nM at Akt3; 8100 nM on Akt1.

With `COC(=O)N(C)[C@H]1CC[C@H](CC(=O)Nc2cnc(-c3ccc([C@]4(N)C[C@H](F)C4)cc3)c(-c3ccccc3)c2)CC1` [Example 77, Methyl (trans-4-(2-((6-(4-(trans-1-amino-3-fluorocyclobutyl)phenyl)-5-phenylpyridin-3-yl)amino)-2-oxoethyl)cyclohexyl)(methyl)carbamate], the IC50 is 100 nM at p-Akt3 in WM115 cells; greater than 30000 nM on p-Akt1 in LNCaP cells; 5100 nM at p-Akt2 in WM115 cells; 1100 nM on Akt2; 62 nM on Akt3; 7900 nM on Akt1.

For `COC(=O)N(C)[C@H]1CC[C@H](CC(=O)Nc2cc(-c3ccccc3)c(-c3ccc(C4(N)CCC4)cc3)cn2)CC1` [Example A61, Methyl (trans-4-(2-((5-(4-(1-aminocyclobutyl)phenyl)-4-phenylpyridin-2-yl)amino)-2-oxoethyl)cyclohexyl)(methyl)carbamate], the IC50 on p-Akt3 in WM115 cells is 910 nM; at p-Akt1 in LNCaP cells it was greater than 30000 nM; on p-Akt2 in WM115 cells, greater than 27000 nM; on Akt2, 1300 nM; at Akt3, 77 nM; on Akt1, greater than 30000 nM.

As to `CN(C(=O)C1CC1)[C@H]1CC[C@H](CC(=O)Nc2cnc(-c3ccc(C(C)(C)N)cc3)c(-c3ccsc3)c2)CC1` [Example 27, N-(trans-4-(2-((6-(4-(2-aminopropan-2-yl)phenyl)-5-(thiophen-3-yl)pyridin-3-yl)amino)-2-oxoethyl)cyclohexyl)-N-methylcyclopropanecarboxamide], the IC50 at p-Akt3 in WM115 cells was 380 nM; on p-Akt1 in LNCaP cells, greater than 30000 nM; at p-Akt2 in WM115 cells it was 10000 nM; at Akt2, 12000 nM; on Akt3 it was 680 nM; at Akt1, greater than 30000 nM.

For the compound `COC(=O)N(C)[C@H]1CC[C@H](CC(=O)Nc2cc(-c3ccccc3)c(-c3ccc([C@]4(N)C[C@](C)(O)C4)cc3)cn2)CC1` [Example 67, Methyl (trans-4-(2-((5-(4-(trans-1-amino-3-hydroxy-3-methylcyclobutyl)phenyl)-4-phenylpyridin-2-yl)amino)-2-oxoethyl)cyclohexyl)(methyl)carbamate], the IC50 was 37 nM at p-Akt3 in WM115 cells; greater than 9300 nM on p-Akt1 in LNCaP cells; 1500 nM at p-Akt2 in WM115 cells; 180 nM on Akt2; 8 nM on Akt3; greater than 6500 nM on Akt1.

As for `CC(=O)N(C)[C@H]1CC[C@H](CC(=O)Nc2cnc(-c3ccc(C4(N)CCC4)cc3)c(-c3ccccc3)c2)CC1` [Example 10, N-(6-(4-(1-aminocyclobutyl)phenyl)-5-phenylpyridin-3-yl)-2-(trans-4-(N-methylacetamido)cyclohexyl)acetamide], the half-maximal inhibitory concentration (IC50) is 39 nM on p-Akt3 in WM115 cells; 6700 nM at p-Akt1 in LNCaP cells; 970 nM at p-Akt2 in WM115 cells; 260 nM on Akt2; 30 nM at Akt3; 6200 nM at Akt1.

With `CC(=O)N(C)[C@H]1CC[C@H](CC(=O)Nc2cnc(-c3ccc(C(C)(C)N)c(F)c3)c(-c3ccccc3)c2)CC1` [Example 31, N-(6-(4-(2-aminopropan-2-yl)-3-fluorophenyl)-5-phenylpyridin-3-yl)-2-(trans-4-(N-methylacetamido)cyclohexyl)acetamide], the concentration for half-maximal inhibition (IC50) on p-Akt3 in WM115 cells is 440 nM; on p-Akt1 in LNCaP cells it was greater than 30000 nM; on p-Akt2 in WM115 cells it was greater than 30000 nM; on Akt2, greater than 15000 nM; at Akt3, 1700 nM; on Akt1, greater than 30000 nM.

As to `C[C@]1(O)C[C@@](N)(c2ccc(-c3ncc(NC(=O)C[C@H]4CC[C@H](N5CCOCC5)CC4)cc3-c3ccccc3)cc2)C1` [Example A15, N-(6-(4-(trans-1-amino-3-hydroxy-3-methylcyclobutyl)phenyl)-5-phenylpyridin-3-yl)-2-(trans-4-morpholinocyclohexyl)acetamide], the IC50 worked out at 48 nM at p-Akt3 in WM115 cells; 760 nM at p-Akt1 in LNCaP cells; 810 nM at p-Akt2 in WM115 cells; 350 nM on Akt2; 290 nM on Akt3; 260 nM on Akt1.

For `CC(=O)N[C@H]1CC[C@H](CC(=O)Nc2cnc(-c3ccc(C4(N)CCC4)cc3)c(-c3ccsc3C)c2)CC1` [Example 18, 2-(trans-4-acetamidocyclohexyl)-N-(6-(4-(1-aminocyclobutyl)phenyl)-5-(2-methylthiophen-3-yl)pyridin-3-yl)acetamide], the IC50 is 1100 nM at p-Akt3 in WM115 cells; greater than 30000 nM on p-Akt1 in LNCaP cells; 14000 nM at p-Akt2 in WM115 cells; 6900 nM on Akt2; 1300 nM at Akt3; greater than 30000 nM on Akt1.

On to `CC(=O)N(C)[C@H]1CC[C@H](CC(=O)Nc2cc(-c3ccsc3)c(-c3ccc([C@]4(N)C[C@](C)(O)C4)cc3)cn2)CC1` [Example 93, N-(5-(4-(trans-1-amino-3-hydroxy-3-methylcyclobutyl)phenyl)-4-(thiophen-3-yl)pyridin-2-yl)-2-(trans-4-(N-methylacetamido)cyclohexyl)acetamide], for which the IC50 is 9 nM at p-Akt3 in WM115 cells; 2200 nM on p-Akt1 in LNCaP cells; 520 nM at p-Akt2 in WM115 cells; 320 nM on Akt2; 10 nM on Akt3; 3900 nM on Akt1.

Regarding `CCOC(=O)N(C)[C@H]1CC[C@H](CC(=O)Nc2cnc(-c3ccc([C@]4(N)C[C@](C)(O)C4)cc3)c(-c3ccccc3)c2)CC1` [Example 97, Ethyl (4-(2-((6-(4-(trans-1-amino-3-hydroxy-3-methylcyclobutyl)phenyl)-5-phenylpyridin-3-yl)amino)-2-oxoethyl)cyclohexyl)(methyl)carbamate], the IC50 on p-Akt3 in WM115 cells was determined as 6 nM; at p-Akt1 in LNCaP cells it was 880 nM; at p-Akt2 in WM115 cells, 600 nM; on Akt2, 48 nM; on Akt3, 5 nM; on Akt1, 2900 nM.
